We go through 70 molecules from PubChem BioAssay AID179 (DTP/NCI, 2004).

Active and inactive are the calls of the source.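 The calls were made as follows: active = compounds giving half or more protection of infected cells from virus-caused growth loss, again on retest; inactive = the rest.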

The test system of this experiment is CEM cells HIV-1 protection, formazan growth assay. The experiment is described as follows: NCI AIDS Antiviral Assay. The settings on record: for IC50: measured here: growth of uninfected CEM cells. The method, boiled down: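 Five concentrations of each compound were applied to infected and uninfected human CEM cells. Protection from HIV-1 was judged from growth measured with a soluble formazan assay.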

`CCCCCCCCCCCCCCCCCC(=O)NCCCNCCCNC(=O)CCCCCCCCCCCCCCCCC`: the EC50 (commonly the concentration needed to bring the measured effect to its halfway point) was > 12.6 µM and the IC50 (in general, the point on the concentration scale where inhibition reaches its midpoint) is > 12.6 µM.

With `COC(=O)CC1C2CCC1C(=O)C2` (stereo not given), the EC50 is > 200 µM and the IC50 is > 200 µM.

As to `N=c1ccc2nc(N)nn(O)c-2c1`, the EC50 is > 200 µM and the IC50 is > 200 µM.

For `FC(F)(F)c1cccc(COCCN2CCN(Cc3cccc(C(F)(F)F)c3)CC2)c1`, the EC50 is > 200 µM and the IC50 was found to be 18.2 µM.

For the molecule `CC(C)N(C(=O)C12C3C4C1C1C4(C#N)C3C12C#N)C(C)C` (stereo not given), the EC50 was > 129 µM and the IC50 was > 129 µM.

With `COC(=O)[C@@H](COC(=O)/C=C/c1ccc(OC(C)=O)c(OC(C)=O)c1)NC(=O)/C=C/c1ccc(OC(C)=O)c(OC(C)=O)c1`, the EC50 was > 100 µM and the IC50 was found to be 19.1 µM.

In the case of `COc1cc(C(O)C(=O)c2nc3ccc([N+](=O)[O-])cc3[nH]c2=O)ccc1O` (stereo not given), the EC50 was > 251 µM and the IC50 is > 251 µM.

In the case of `Oc1ccc(C2Oc3cc(OC4OCC(O)C(O)C4O)cc(O)c3CC2O)cc1O` (stereo not given), the EC50 was > 200 µM and the 50% inhibitory concentration (IC50) is > 200 µM.

With `Cc1ccccc1-n1c(=S)n(-c2ccccn2)c2nc3ccccc3nc1/c2=N/Nc1ccccn1`, the EC50 is > 162 µM.

Take `CCSC1=N/C(=C\c2ccco2)C(Nc2ccc(C)cc2)=N1`: the EC50 was > 50.1 µM and the IC50 was > 50.1 µM.

Take `CC(C)Oc1c(O)c2c3c(oc(=O)n3C=CC2c2ccccc2)c1OC(C)C` (stereo not given): the EC50 is > 200 µM and the IC50 was 21.9 µM.

`Cn1cc(N)cc1C(=O)Nc1cc(C(=O)Nc2ccc(S(=O)(=O)O)c3cc(S(=O)(=O)O)ccc23)n(C)c1`: the EC50 is 31.6 µM and the IC50 is 324 µM.

Consider `COc1ccc(C2=Nn3c(nc4sc(C)c(C)c4c3=O)SC2)cc1`, for which the EC50 is > 200 µM and the IC50 is > 200 µM.

In the case of `CCc1c(O)c2c(c(O)c1C(C)=O)C(=O)c1c(cc(O)c(C(=O)O)c1C(=O)O)C2=O`, the EC50 is > 33.1 µM and the IC50 was > 33.1 µM.

Take `COc1ccc([C@H]2CC3C(=O)N(c4ccc(OC)cc4)C(=O)C3c3[nH]c4ccccc4c32)cc1` (stereo not given in full): the EC50 is > 1.66 µM and the IC50 was > 1.66 µM.

Turning to `Cc1ccsc1/C=N/Nc1cc(C)c2ccccc2n1`, the EC50 was > 200 µM and the IC50 came to 5.37 µM.

As for `CCOc1ccc(Nc2nc(C)c(C(=O)CC(=O)C(=O)Nc3ccc(C(C)C)cc3C(C)C)s2)cc1`, the EC50 is > 200 µM and the IC50 is 105 µM.

On to `Nc1nc(N)c(-c2ccccc2)c(C(=O)Nc2nccs2)n1`, for which the EC50 is > 22.9 µM and the IC50 was > 22.9 µM.

With `CC(C)OP(=O)(OC(C)C)C(=NCCN=C(NNc1ccccc1[N+](=O)[O-])P(=O)(OC(C)C)OC(C)C)NNc1ccccc1[N+](=O)[O-]`, the EC50 is > 13.8 µM and the IC50 was > 13.8 µM.

For `Cc1cccc(SCc2nc3ccccc3c(C)[n+]2[O-])c1`, the EC50 was 13.5 µM and the IC50 was determined as 52.5 µM.

`CC1(C)C2CCC3=C(CCC4(C)C5C[C@](C)(C(=O)O)CC[C@]5(C)CC[C@]34C)[C@@]2(C)CC[C@@H]1O` (stereo not given in full): the EC50 is 24 µM and the IC50 turned out to be 81.3 µM.

Regarding `CSSc1ccccc1`, the EC50 is > 20 µM and the IC50 is 7.76 µM.

Take `CN1CCN(c2c(C(=O)Nc3ccc([N+](=O)[O-])cc3)cc([N+](=O)[O-])cc2[N+](=O)[O-])CC1`: the EC50 was > 200 µM and the IC50 is > 100 µM.

For the molecule `CC(=O)NNc1nc(C)c(C(=O)NNC(=O)C(=O)Nc2ccc(Cl)c([N+](=O)[O-])c2)s1`, the EC50 is > 288 µM and the IC50 came to 107 µM.

For `O=C1c2c(O)ccc(O)c2C(=O)c2c(NCCOCCO)ccc(NCCOCCO)c21`, the EC50 is > 200 µM and the IC50 worked out at 3.55 µM.

Regarding `Nc1nc2nn(-c3ccc(C(=O)O)cc3)nc2c(=O)[nH]1`, the EC50 is > 200 µM and the IC50 is > 200 µM.

In the case of `O=C1C=C(N2CC2)C(=O)C(N2CC2)=C1N1CC1`, the EC50 was > 10.7 µM and the half-inhibitory concentration (IC50) was 0.0324 µM.

For `O=C(c1ccccc1)N1CCN2CCN=C(c3ccccc3)C21c1ccccc1` (stereo not given), the EC50 was > 132 µM and the IC50 is > 132 µM.

Consider `CCC(Cc1ccccc1)C1=NC(C)(C)CC(C)O1` (stereo not given), for which the EC50 is > 200 µM and the IC50 came to 79.4 µM.

As to `O=C1C=CC(=O)C2C3c4ccccc4C(c4ccccc43)C12` (stereo not given), the EC50 is > 34.7 µM and the IC50 is > 34.7 µM.

As to `Cc1nc(-n2nc(-c3ccccc3)cc2-c2ccccc2)sc1C(=O)CC(=O)C(=O)Nc1ccc(Cl)c(Cl)c1`, the EC50 is > 45.7 µM and the IC50 is > 45.7 µM.

On to `CCCCN(CCCC)c1c([N+](=O)[O-])c(=O)nc2ccccn12`, for which the EC50 is > 794 µM and the IC50 came to 1.7 µM.

Take `CCOP(=S)(OCC)Oc1cc(C)nc(C(C)C)n1`: the EC50 is > 309 µM and the IC50 is > 309 µM.

On to `CCCCN(CC)C(=O)C(=O)Cc1nc2ccc(C(=O)c3ccccc3)cc2[nH]c1=O`, for which the EC50 is > 17.4 µM and the IC50 was > 17.4 µM.

Take `Cc1occc1C(=S)Nc1ccc(Cl)c(C(=O)OC2CCCC2)c1`: the EC50 was 0.00295 µM and the IC50 came to 16.6 µM.

`CCCCCCCCCCCCCCCCOCC(CN(C)CCN(C)C)OCCCCCCCCCCCCCCCC` (stereo not given): the result was inactive.

Consider `COC(=O)[C@](C)(Cc1ccccc1)NC(=O)[C@@H](C)N1[C@@H](c2ccccc2)COC1(C)C`, for which the EC50 is > 200 µM and the IC50 was > 200 µM.

Turning to `COc1cc(Nc2cnc3cc(F)c(F)cc3n2)cc(OC)c1OC`, the EC50 is > 200 µM and the IC50 was > 200 µM.

Take `CCn1c2ccc(C(=O)CCCN(C)C)cc2c2cc(C(=O)CCCN(C)C)ccc21`: the EC50 was > 380 µM and the concentration for half-maximal inhibition (IC50) worked out at 0.123 µM.

With `Cc1c(C(=O)C(=O)c2ccccc2)c(C)c(C(=O)C(=O)c2ccccc2)c(C)c1C(=O)C(=O)c1ccccc1`, the EC50 is > 200 µM and the IC50 is > 200 µM.

With `CC(C)[Si](OC1=CCC[C@H]2NC(=O)[C@@H](Cc3ccc([N+](=O)[O-])cc3)[C@@]12C)(C(C)C)C(C)C`, the EC50 was > 200 µM and the IC50 came to 20.4 µM.

On to `O=Nn1ccccc1=Nc1ccccc1`, for which the EC50 was > 200 µM and the IC50 was 117 µM.

For the molecule `Oc1[nH]c2ccccc2c1N=NC(=S)NCc1ccccn1`, the EC50 was > 2 µM and the IC50 stood at 0.0295 µM.

Consider `CS(=O)(=O)CS(C)(=O)=O`, for which the EC50 was > 200 µM and the IC50 is > 200 µM.

Take `O=C1NC(Cc2ccc(Cl)cc2)C(=O)N2CCCC12` (stereo not given): the EC50 is > 200 µM and the IC50 came out at 95.5 µM.

Consider `CCCCCCCCCC(=O)OCC1OC(n2cc(F)c(=O)[nH]c2=O)C(NC(=O)OCc2ccccc2)C(OC(=O)CCCCCCCCC)C1O` (stereo not given), for which the EC50 is > 9.77 µM and the IC50 is > 9.77 µM.

`C[C@]12CNC(=O)C=C1CC[C@@H]1C2CC[C@]2(C)NC(=O)CCC12` (stereo not given in full): the result was inactive.

Turning to `O=C1CNC(=O)c2c(ncn2C2OC(CO)CC2O)N1` (stereo not given), the EC50 is > 302 µM and the 50% inhibitory concentration (IC50) was > 302 µM.

As to `CC(=O)N(O)c1ccc(Cl)cc1`, the EC50 is > 200 µM and the IC50 is > 200 µM.

As to `CN(C)CCSc1cccc(-c2cc(-c3cccc(SCCN(C)C)c3)ncn2)c1`, the EC50 was > 21.9 µM and the IC50 was found to be 8.71 µM.

On to `CC1=NN(C(=O)c2ccc(Cl)cc2)C(=O)/C1=C/c1ccc(Cl)cc1`, for which the EC50 is > 10.5 µM and the IC50 is > 10.5 µM.

On to `CC(=O)OC12c3ccccc3-c3ccccc3C1C(C(=O)O)C2(Cl)C(=O)O` (stereo not given), for which the EC50 was > 646 µM and the IC50 was 355 µM.

Turning to `O=C(O)CSc1n[nH]c(/C=C/c2ccccc2)n1`, the EC50 is > 955 µM and the IC50 is > 955 µM.

Consider `CC1C(C#N)(C#N)C(C#N)=C(N)C1(Cl)[N+](=O)[O-]` (stereo not given), for which the EC50 is > 200 µM and the IC50 was 3.72 µM.

With `COC1(C)C(=O)N2C1N(C(=O)OC(C)(C)C)CC2(C)C` (stereo not given), the EC50 is > 380 µM and the IC50 is > 380 µM.

For the molecule `O=C1/C(=C/c2ccccc2)CN(C(=O)Oc2ccc(Cl)cc2)C/C1=C\c1ccccc1`, the outcome was inactive.

Turning to `CC1=C(C)[C@]2(C)C(C)[C@]13Cn1c(=O)n(-c4ccccc4)c(=O)n1[C@@]32C` (stereo not given in full), the EC50 was > 77.6 µM and the IC50 stood at 51.3 µM.

On to `N#C/C(=C\c1ccc(Br)cc1)c1nc(-c2cc3ccccc3oc2=O)cs1`, for which the EC50 was 83.2 µM and the IC50 was > 100 µM.

On to `CO/N=C\c1ccc2c(c1)Sc1ccccc1O2`, for which the EC50 was > 200 µM and the IC50 was > 200 µM.

Regarding `COc1ccc(C2(O)C(S(=O)(=O)c3ccc(C)cc3)=Cc3ccc(OC)cc32)cc1` (stereo not given), the EC50 is > 200 µM and the IC50 is > 200 µM.

For `NNC(=O)CC(=O)Nc1ccccc1F`, the EC50 is > 1170 µM and the IC50 came out at 871 µM.

Regarding `COc1cc(C(=O)NC2CCc3cc(OC)c(OC)c(OC)c3-c3ccc(OC)c(=O)cc32)cc(OC)c1OC` (stereo not given), the EC50 was > 0.2 µM and the IC50 was 0.0661 µM.

`CC(C)(C)C=C=C(C(C)(C)C)P(=O)(O)O`: the EC50 was > 200 µM and the IC50 was > 200 µM.

Consider `CCCCN(CCCC)CCCn1cnc2ncccc2c1=O`, for which the result was inactive.

As to `O=C1CN(c2cccc(C(F)(F)F)c2)C(=O)CN1NCNN1CC(=O)N(c2cccc(C(F)(F)F)c2)CC1=O`, the EC50 is > 200 µM and the IC50 was > 200 µM.

For the molecule `Cc1ccc(/C=C2\N=C(N3CCCC(CO)C3)NC2=O)cc1` (stereo not given), the EC50 was > 200 µM and the IC50 is > 200 µM.

Regarding `N#Cc1ccccc1Sc1ccccc1N`, the EC50 is > 158 µM and the IC50 is > 158 µM.

On to `COc1cc(C=O)c(-c2cc3c(cc2C2(C)OCCS2)OCO3)c(OC)c1OC` (stereo not given), for which the EC50 was > 44.7 µM and the IC50 stood at 2.51 µM.

For `CN1CC(=O)Nc2c(ncn2C2OC(CO)C(O)C2O)C1=O` (stereo not given), the EC50 was > 229 µM and the IC50 was > 229 µM.

Turning to `O=c1[nH]c(=O)c2c3n(cc2[nH]1)CCCCC3`, the EC50 was > 200 µM and the IC50 was > 200 µM.
